# Laboratory results as given in patent US20260115162A1, “COMPOSITION OR ASSOCIATION OF COMPOUNDS PREFERABLY FOR USE IN THE TREATMENT OF NERVOUS DISEASES IN PARTICULAR NEURODEGENERATIVE DISEASES, METHOD FOR THE PREPARATION OF SUCH COMPOSITION OR ASSOCIATION OF COMPOUNDS AND USES THEREOF” (PHARMACEUTICA SAN MARCO S.R.L., priority 2022, published 2026).
# Columns and labels:
# intact mice = assay: Behavioral tests on intact animals (open field, freezing); type: in vivo
# Description: The trials were performed at the Department of Clinical and Experimental Medicine of the University of Foggia according to the following rationale. • 1. In the present mouse model of beta-amyloid toxicity, using validated tests in mice, we evaluated the behaviors: • a. antidepressant: Tail Suspension Test (TST); Forced Swimming Test (FST); Splash Test (ST) with latency time (sec) and self-care (sec) measurement. • b. antianxiety: Open Field Test with measurement of distance traveled (m), time spent in the wall (sec), time spent in the center (sec), center entries (n); Freezing Test (sec). • c. on memory, learning, coordination of motor skills, fear conditioning: Rotarod Test with measure of Latency to Fall, repeated after training to evaluate motor learning. • 2. We tested the protective effects with the following procedure: • a. individually: βCP, FE, βBA, DHA and HA4; • b. in association with pairs: βCP+HA4, FE+HA4, βBA+HA4, FE+βCP, βBA+FE, βBA+βCP. • c. in association, all four together: βCP+FE+βBA+HA4 • d. versus control (SHAM), • e. using the mouse model of an Aβ-induced depressive phenotype. • 3. These behavioral tests were integrated with serotonin, dopamine, noradrenaline and their metabolites prefrontal cortex and hippocampus measurement. • 4. Furthermore, we evaluated the cortical and hippocampal glutamate (GLU) levels in mice treated with AP and subsequently we tested the ability of βCP, FE, βBA and HA4, to modulate this neurochemical parameter.
# βCP, FE e βBA (Merck, Cayman Chemical Company) was dissolved in sunflower oil, this vehicle was chosen in order to maintain a better tasting and higher density of the final solution thus reducing reflux through the digestive tract.
# Ten μl of the solution (or vehicle alone) were administered sublingually to mice. Brain βCP, FE e βBA were quantified in a separate subset of mice at 5, 15 and 30 min after their administration.
# Open Field Test. Mice were placed in an open field arena and allowed to explore for 30 min [Lama A et al. 2021]. After each trial, the arena floor was cleaned with 70% ethanol to avoid inter-assay bias. The movements of mice were video recorded and analyzed by ANY-maze tracking software (Ugo Basile-Varese, Gemonio, Italy). Locomotion was evaluated through total crossing measurements.
# NF-kB = NF-kB in PFC and HIPP of mice treated with Aβ icv, Western blotting (FIG. 10); type: in vivo; details: after 7 days
# Description: The Aβ1-42, obtained from Tocris (Bristol, UK), was dissolved in sterile double-distilled pyrogenic-free water, as vehicle, to obtain a final concentration 4 μM [Colaianna M et al. 2010]. Mice were anesthetized with a solution (0.85 in ml/kg, i.p.), containing ketamine (Sigma Aldrich, Milan, Italy, 100 mg/10 ml), xylazine (Sigma Aldrich, Milan, Italy, 100 mg/10 ml) and acepromazine (prequillant, ATI Azienda Terapeutica Veterinaria Srl, 10 mg/10 ml) dissolved in saline solution. […] At the time of dissection, the correct needle track was assessed. […]
# The total amount of proteins was measured in homogenates by using Pierce BCA Assay (Thermo Fisher Scientific, Cleveland, OH, USA). […] After HRP-conjugated specific antibody incubation, ECL reagent (Bio-Rad Laboratories Inc., Segrate (MI), Italy) was added to the immune complex and chemiluminescence was detected by ChemiDoc MP system (Bio-Rad Laboratories Inc., Segrate (MI), Italy). Optical densities of the bands were measured using Image J software (http://rsb.info.nih.gov/ij/ accessed on 15 Mar. 2021) and normalized against bands relative to -actin (1:5,000, Abcam, Cambridge, UK).
# catG (cathepsin G) = biological target: T1, catG (cathepsin G) (Homo sapiens, UniProt P08311); details: in vitro; read-out: IC50 catG (cathepsin G) inhibition; cited from earlier work
# T1 sequence (P08311 21-244): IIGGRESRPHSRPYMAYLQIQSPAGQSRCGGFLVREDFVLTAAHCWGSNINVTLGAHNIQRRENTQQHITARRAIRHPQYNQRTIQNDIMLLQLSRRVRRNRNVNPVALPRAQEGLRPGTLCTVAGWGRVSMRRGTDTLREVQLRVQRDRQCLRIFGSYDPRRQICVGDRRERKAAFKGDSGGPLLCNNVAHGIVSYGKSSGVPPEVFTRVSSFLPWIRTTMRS
smiles,measurement,setting,value
"C[C@H]1[C@H](C)CC[C@]2(C)CC[C@]3(C)C(=CC[C@@H]4[C@@]5(C)CC[C@@H](O)[C@](C)(C(=O)O)[C@@H]5CC[C@]43C)[C@H]12 [βBA, β-boswellic acid]",lowest dose showing antidepressant effects,"intact mice; intact mice, preliminary experiments (unpublished observations)",5 mg/kg
same,"effect in behavioral tests, individually","intact mice; mouse, in vivo",antidepressant and anxiolytic effect
same,NF-kB tissue concentration,NF-kB,progressive removal of the pro-inflammatory effect induced by Aβ
same,IC50,catG (cathepsin G),800 nM
